# Source: patent publication US9643952B2, “Pyridone compound” (KYOWA HAKKO KIRIN CO., LTD., priority 2012, dated 2017)
# System: dinitrofluorobenzene-induced auricle edema reaction
# Experiment: Suppressive action on dinitrofluorobenzene-induced auricle edema reaction in mouse
# Type: in vivo
# Conditions: for auricle edema suppression rate (%): BALE/c mice (female), test compound 1% (w/v %) in acetone applied to front and back of auricle (total 20 μL) 1 hr before and 3 hr after induction, auricle thickness 24 hr after induction; for suppressive action on auricle edema response (in words): BALE/c mice, 1% (w/v %) in acetone applied to auricle
# Protocol: BALE/c mice (female, supplied by CHARLES RIVER LABORATORIES JAPAN, INC.) were purchased at the age of 5 weeks. After quarantine and acclimation, mice showing smooth body weight increase and free of abnormality in appearance were used and the test was started at the age of 7 weeks. The mice were housed in a breeding room at room temperature 19-25° C., humidity 30-70%, 12 hr lighting per day (7 a.m.-7 p.m.) with 3 mice in each plastic gauge, and bred on with free ingestion of a commercially available solid feed and water. Two days before the test, the abdomen of the BALE/c mice was shaved, and the mice were immunized by applying 100 μL of a solution {concentration 0.5% [weight (w)/volume (v) %]} of dinitrofluorobenzene (manufactured by Nacalai Tesque) in acetone (manufactured by Wako Pure Chemical Industries, Ltd.) to the shaved part. The reaction was induced by applying dinitrofluorobenzene-acetone solution [concentration 0.2% (w/v %)] to the front and the back of auricle (10 μL to each, total 20 μL) on day 5 after the immunization. A test compound dissolved in acetone at concentration of 1% (w/v %) was administered by applying same to the front and the back of auricle (10 μL to each, total 20 μL) 1 hr before and 3 hr after induction of the reaction. After application, the applied part was air-dried with a dryer. The group applying administered with the test compound was taken as a test compound administration group, and the group applying administered with acetone as a solvent instead of the test compound was taken as a solvent administration group. Also, the group free of immunization and reaction induction but applying administered with acetone instead of the test compound was taken as a normal group. The thickness of auricle was measured using a dial thickness gauge (G-1A manufactured by OZAKI MFG. CO., LTD.) immediately before and 24 hr after induction of the reaction, and the difference thereof was taken as auricle edema. The suppression rate (%) of auricle edema was calculated according to the following formula. [formula]
SMILES,auricle edema suppression rate (%),suppressive action on auricle edema response (in words)
"COCCn1cc(C(=O)N2CCC(c3ccc(F)cc3)CC2)c(Nc2ccc(F)cc2F)c(Cl)c1=O [Compound 144, 3-chloro-4-(2,4-difluorophenylamino)-5-[4-(4-fluorophenyl)piperidine-1-carbonyl]-1-(2-methoxyethyl)pyridin-2(1H)-one]",32,
"Cc1ccc(Cl)cc1Nc1c(C(=O)N2CCC(c3ccc(F)cc3)CC2)cn(OCCO)c(=O)c1Cl [Compound 204, 3-chloro-4-(5-chloro-2-methylphenylamino)-5-[4-(4-fluorophenyl)piperidine-1-carbonyl]-1-(2-hydroxyethoxyl)pyridin-2(1H)-one]",41,showed a suppressive action on auricle edema response
"Cc1c(Nc2ccc(F)cc2F)c(C(=O)N2CCC(c3ccc(F)cc3)CC2)cn(C)c1=O [Compound 125, 4-(2,4-difluorophenylamino)-5-[4-(4-fluorophenyl)piperidine-1-carbonyl]-1,3-dimethylpyridin-2(1H)-one]",47,showed a suppressive action on auricle edema response
"Cn1cc(C(=O)N2CCC(c3ccc(F)cc3)CC2)c(Nc2ccc(S(C)(=O)=O)cc2F)c(Cl)c1=O [Compound 145, 3-chloro-4-[2-fluoro-4-(methylsulfonyl)phenylamino]-5-[4-(4-fluorophenyl)piperidine-1-carbonyl]-1-methylpyridin-2(1H)-one]",,showed a suppressive action on auricle edema response
"Cc1cc(C#N)ccc1Nc1c(C(=O)N2CCC(c3ccc(F)cc3)CC2)cn(C)c(=O)c1Cl [Compound 100, 4-{3-chloro-5-[4-(4-fluorophenyl)piperidine-1-carbonyl]-1-methyl-2-oxo-1,2-dihydropyridin-4-ylamino}-3-methylbenzonitrile]",53,showed a suppressive action on auricle edema response
"COCCn1cc(C(=O)N2CCC(c3ccc(F)cc3)CC2)c(Nc2ccc3scnc3c2)c(Cl)c1=O [Compound 206, 4-(benzo[d]thiazol-5-ylamino)-3-chloro-5-[4-(4-fluorophenyl)piperidine-1-carbonyl]-1-(2-methoxyethyl)pyridin-2(1H)-one]",30,showed a suppressive action on auricle edema response
